# Patent US20170216252A1, “ANTI-BACTERIAL PYRUVATE KINASE MODULATOR COMPOUNDS, COMPOSITIONS, USES AND METHODS” (SIMON FRASER UNIVERSITY, priority 2014, published 2017)
# Like-named read-outs stand apart in the source and are kept apart here.
# Legend:
# MRSA PK = target: T1, MRSA PK (Staphylococcus aureus, UniProt Q6GG09); experiment: MRSA PK activity, continuous LDH-coupled assay; type: biochemical, S. aureus (MRSA strain Sanger 252); settings: for fold more potent: compared to 10a
# T1 construct: His tag (pET-28a(+) vector) (N); made in house; host or cells: E. coli BL-21 (DE3)
# T1 sequence (Q6GG09 whole entry): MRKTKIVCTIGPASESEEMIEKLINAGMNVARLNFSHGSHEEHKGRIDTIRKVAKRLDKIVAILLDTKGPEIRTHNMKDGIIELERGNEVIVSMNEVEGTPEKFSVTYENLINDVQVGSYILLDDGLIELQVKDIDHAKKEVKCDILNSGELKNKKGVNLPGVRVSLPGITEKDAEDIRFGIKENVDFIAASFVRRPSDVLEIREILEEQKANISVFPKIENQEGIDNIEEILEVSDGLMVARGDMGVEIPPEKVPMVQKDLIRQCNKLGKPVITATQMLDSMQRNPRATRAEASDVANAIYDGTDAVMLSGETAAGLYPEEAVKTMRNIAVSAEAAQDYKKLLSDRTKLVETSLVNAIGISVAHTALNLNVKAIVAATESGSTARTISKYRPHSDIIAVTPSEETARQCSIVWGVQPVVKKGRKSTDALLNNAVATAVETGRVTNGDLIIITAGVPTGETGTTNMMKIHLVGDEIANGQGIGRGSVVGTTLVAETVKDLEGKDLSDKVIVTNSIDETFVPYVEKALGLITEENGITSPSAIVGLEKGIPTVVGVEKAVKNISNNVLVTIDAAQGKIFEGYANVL
# Method in brief: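 Activity was tracked as the 340 nm absorbance fall from NADH oxidation via coupled LDH, at 30 °C for ≤5 min. Reactions began on adding 15 nM recombinant His-tagged S. aureus PK, with inhibitor DMSO kept ≤1%. Four-parameter dose–response fitting gave IC50.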
# S. aureus ATCC 29213 = experiment: In vitro susceptibility, broth microdilution MIC; type: cell-based, Staphylococcus aureus; settings: for MIC: Staphylococcus aureus, read-out: MIC
# Method in brief: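 The MIC against S. aureus 29213 was determined by CLSI 2-fold serial broth microdilution in Mueller Hinton broth. Plates were incubated for 18–24 h at 37 °C and read at OD600 with background subtracted. The MIC was the lowest concentration giving complete growth inhibition versus compound-free wells.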
# [1] = Tables 1-6, 2 mM ADP, 10 mM PEP, 15 nM PK, read-out: IC50
# [2] = ATCC29213, Tables 1-6 and text, minimum concentration to give >98% inhibition of growth
# [3] = read-out: % inhibition at the highest concentration tested (IC50)
# [4] = ATCC29213, Table 8, tested at least in duplicate, differing values all given
Compound,IC50 (MRSA PK; [1]) [nM],MIC (S. aureus ATCC 29213; [2]) [µg/mL],melting point,IC50 (MRSA PK) [nM],further results
"Brc1ccc2[nH]c(-c3nc4ccc(Br)cc4s3)cc2c1 [Compound 22g, 6-Bromo-2-(5-bromo-1H-indol-2-yl)benzo[d]thaizole]",4.1,> 64,246 to 248 °C,–,fold more potent (MRSA PK): about 5 fold
"Cn1c(-c2cc3cc(Br)ccc3[nH]2)cc2ccc(Br)cc21 [Compound 12b, 5′,6-Dibromo-1-methyl-1H,2′H-2,2′-biindole]",–,–,192 to 194 °C,–,inhibition at 10 µM (MRSA PK; [3]): 25%
"Brc1ccc2cc(-c3cccc(-c4cc5ccccc5[nH]4)c3)[nH]c2c1 [Compound 33f, 2-(3-(1H-indol-2-yl)phenyl)-6-bromo-1H-indole]",–,–,224 to 226 °C,–,inhibition at 10 µM (MRSA PK; [3]): 36%
"Brc1ccc2cc(-c3cc4ccccc4s3)[nH]c2c1 [Compound 22c, 2-(Benzo[b]thiophen-2-yl)-6-bromo-1H-indole]",14,> 64,250 to 252 °C,–,–
"Fc1ccc2[nH]c(-c3cc4ccc(Br)cc4[nH]3)cc2c1 [Compound 10e, 6′-Bromo-5-fluoro-1H,1′H-2,2′-biindole]",2.8,0.3,246 to 248 °C,–,–
"Brc1ccc2[nH]c(-c3cc4ccccc4s3)cc2c1 [Compound 22f, 2-(Benzo[b]thiophen-2-yl)-5-bromo-1H-indole]",–,> 64,269 to 271 °C,–,inhibition at 1 µM (MRSA PK; [3]): 42%
"Brc1ccc2[nH]c(CCc3cc4ccc(Br)cc4[nH]3)cc2c1 [Compound 28b, 6-bromo-2-(2-(5-bromo-1H-indol-2-yl)ethyl)-1H-indole]",6.3,> 64,208 to 210 °C,–,–
"Clc1ccc2[nH]c(-c3cc4ccc(Br)cc4[nH]3)cc2c1 [Compound 10d, 6′-Bromo-5-chloro-1H,1′H-2,2′-biindole]",2,0.3,257 to 259 °C,–,–
"O=C(Cn1c(-c2cc3ccc(Br)cc3[nH]2)cc2cc(Br)ccc21)N1CCOCC1 [Compound 15, 2-(5,6′-dibromo-1H,1′H-[2,2′-biindol]-1-yl)-1-morpholinoethanone]",6,> 64,320 to 322 °C,–,–
"Brc1cc2cc(-c3cc4ccccc4[nH]3)[nH]c2cc1Br [Compound 10j, 5,6-Dibromo-1H,1′H-2,2′-biindole]",–,–,233 °C (dec.),–,inhibition at 10 µM (MRSA PK; [3]): 39%
"Brc1ccc2cc(C#Cc3cc4ccccc4[nH]3)[nH]c2c1 [Compound 25a, 2-((1H-indol-2-yl)ethynyl)-6-bromo-1H-indole]",7.1,> 64,240 to 242 °C,–,fold more potent (MRSA PK): 3 fold
"Brc1ccc2c(c1)cc(-c1cc3ccc(Br)cc3[nH]1)n2CCN1CCCCC1 [Compound 72, 5,6′-dibromo-1-(2-(piperidin-1-yl)ethyl)-1H,1′H-2,2′-biindole]",–,> 64,102 to 104 °C,3.7,–
"Brc1ccc2[nH]c(-c3cc4ccccc4o3)cc2c1 [Compound 22e, 2-(Benzofuran-2-yl)-5-bromo-1H-indole]",–,–,236 to 238 °C,–,inhibition at 10 µM (MRSA PK; [3]): 45%
"Brc1ccc2cc(-c3ccc(-c4cc5ccccc5[nH]4)cc3)[nH]c2c1 [Compound 33c, 2-(4-(1H-indol-2-yl)phenyl)-6-bromo-1H-indole]",5.6,> 64,> 300 °C,–,–
"COc1ccc2[nH]c(-c3cc4ccc(Br)cc4[nH]3)cc2c1 [Compound 10f, 6′-Bromo-5-methoxy-1H,1′H-2,2′-biindole]",2.5,> 64,240 to 241 °C,–,–
"Brc1ccc2cc(-c3cc4cc(-c5ccccc5)ccc4[nH]3)[nH]c2c1 [Compound 10g, 6′-Bromo-5-phenyl-1H,1′H-2,2′-biindole]",2.2,> 64,237 to 239 °C,–,–
"O=C(O)Cn1c(-c2cc3ccc(Br)cc3[nH]2)cc2cc(Br)ccc21 [Compound 14, 2-(5,6′-Dibromo-1H,1′H-[2,2′-biindol]-1-yl)acetic acid]",11.1,> 64,321 to 323 °C,–,–
"Fc1ccc(/C=C/c2cc3ccc(Br)cc3[nH]2)cc1 [Compound 103, (E)-6-Bromo-2-(4-fluorostyryl)-1H-indole]",–,–,–,> 1000,MIC (S. aureus ATCC 29213; [4]): > 64 µg/mL

Compound,IC50 (MRSA PK; [1]) [nM],MIC (S. aureus ATCC 29213; [2]) [µg/mL],melting point,IC50 (MRSA PK) [nM],further results
O=C(Nc1ccc(Br)cc1)c1cc2ccccc2[nH]1 [Compound 52],–,> 32,–,–,inhibition at 10 µM (MRSA PK; [3]): 67%
"O=C(Nc1ccc(Br)cc1)c1cc2ccc(Br)cc2[nH]1 [Compound 63, 6-Bromo-N-(4-bromophenyl)-1H-indole-2-carboxamide]",–,> 64,–,9.7,–
"O=C(O)c1c(/C=C/c2ccc(Cl)nc2)[nH]c2cc(Br)ccc12 [Compound 152, (E)-6-Bromo-2-(2-(6-chloropyridin-3-yl)vinyl)-1H-indole-3-carboxylic acid]",–,–,–,> 1000,MIC (S. aureus ATCC 29213; [4]): 64 µg/mL
"Brc1ccc2[nH]c(-c3nc4ccccc4s3)cc2c1 [Compound 22d, 2-(5-Bromo-1H-indol-2-yl)benzo[d]thiazole]",358,> 64,208 to 210 °C,–,–
"Brc1ccc(/C=C/c2cc3ccc(Br)cc3[nH]2)cc1 [Compound 36b, (E)-6-bromo-2-(4-bromostyryl)-1H-indole]",–,> 64,–,1,–
"CC(=O)c1c(CCc2ccccc2)[nH]c2cc(Br)ccc12 [Compound 39a, 1-(6-bromo-2-phenethyl-1H-indol-3-yl)ethanone]",–,> 64,–,608,–
"Oc1ccc(Br)cc1-c1ccnc(-c2cc3ccc(Br)cc3[nH]2)c1 [Compound 86, 4-bromo-2-(2-(6-bromo-1H-indol-2-yl)pyridin-4-yl)phenol]",–,> 64,–,–,inhibition at 10 µM (MRSA PK; [3]): 62%
"Clc1ccc(C#Cc2cc3ccc(Br)cc3[nH]2)nc1 [Compound 141, 6-bromo-2-((5-chloropyridin-2-yl)ethynyl)-1H-indole]",–,–,–,100 to 1000,MIC (S. aureus ATCC 29213; [4]): > 64 µg/mL
"O=C(O)c1c(/C=C/c2ccc(Br)cn2)[nH]c2cc(Br)ccc12 [Compound 153, (E)-6-Bromo-2-(2-(5-bromopyridin-2-yl)vinyl)-1H-indole-3-carboxylic acid]",–,–,–,100 to 1000,MIC (S. aureus ATCC 29213; [4]): 32 µg/mL
"Brc1ccc2cc(-c3cc4ccccc4[nH]3)[nH]c2c1 [Compound 10a, 6-Bromo-1H,1′H-2,2′-biindole]",21.4,2,199 to 201 °C,–,fold more potent in the MIC assay (S. aureus ATCC 29213; compared to 10b): about 8 fold
"Brc1ccc2cc(/C=C/c3ccccc3)[nH]c2c1 [Compound 36a, (E)-6-bromo-2-styryl-1H-indole]",–,> 64,–,25,–
"COCn1c(-c2cc3ccc(Br)cc3[nH]2)cc2cc(Br)ccc21 [Compound 12c, 5,6′-Dibromo-1-(methoxymethyl)-1H,1′H-2,2′-biindole]",1.9,> 64,199 to 201 °C,–,–
"O=C(Nc1ccc(Br)cc1)c1[nH]c2cc(Br)ccc2c1C(=O)O [Compound 132, 6-Bromo-2-((4-bromophenyl)carbamoyl)-1H-indole-3-carboxylic acid]",–,–,–,< 50,MIC (S. aureus ATCC 29213; [4]): 16 µg/mL
"Brc1ccc2cc(/C=C/c3cc4ccc(Br)cc4[nH]3)[nH]c2c1 [Compound 27b, (E)-1,2-bis(6-bromo-1H-indol-2-yl)ethane]",3.9,> 64,–,–,–
"CC(=O)c1c(/C=C/c2ccccc2)[nH]c2cc(Br)ccc12 [Compound 38a, (E)-1-(6-bromo-2-styryl-1H-indol-3-yl)ethanone]",–,> 64,–,> 20000,–
"O=C(O)c1cc(Br)cc2[nH]c(CCc3ccc(Cl)cc3)cc12 [Compound 159, 6-bromo-2-(4-chlorophenethyl)-1H-indole-4-carboxylic acid]",–,–,–,100 to 1000,MIC (S. aureus ATCC 29213; [4]): 64 µg/mL
"O=C(Nc1nc2ccc(Br)cc2s1)c1ccc(Br)cc1O [Compound 67, 4-Bromo-N-(6-bromobenzo[d]thiazol-2-yl)-2-hydroxybenzamide]",214,> 64,–,–,–
